Values after ≈ are worked out from the molar mass of the structure shown. Like-named read-outs stand apart in the source and are kept apart here.
What was measured:
[1] = Kinetic solubility in phosphate-buffered saline, pH 7.4; assay type: physicochemical; details: 25 °C, pH 7.4, aqueous buffer, kinetic from dmso stock; for solubility at 2 h: PBS solubility
Method: page 239: 7. […] The data […] analysis software. […] page 240: Methods Kinetic solubility assay was performed according to Enamine's aqueous solubility SOP. Briefly, […] theoretical concentration of 400 μM in duplicates in phosphate-buffered saline pH 7.4 […] The experimental compound dilutions in PBS were further allowed to equilibrate at 25 °C on a thermostatic shaker for two hours and then filtered through HTS filter plates using a vacuum manifold. The filtrates of test […] prepared to theoretical concentrations of 0 μM (blank), 10 μM, 25 μM, 50 μM, 100 μM, and 200 […] Ondansetron was used as a reference compound to control proper assay performance. 200 μL of each sample was transferred to a 96-well plate and measured in the 230-550 nm range with a 5 nm step. The concentrations of compounds in PBS filtrate are calculated using a dedicated Microsoft Excel calculation script. Proper absorbance wavelengths for calculations are selected for each compound manually based on absorbance maximums (absolute absorbance unit values for the minimum and maximum concentration points within the 0 - 3 OD range). Each final dataset is visually evaluated by the operator, and goodness of fit (R2) is calculated for each calibration curve. […] close to the upper limit of the range may have higher actual solubility (e.g. 5'-deoxy-5- fluorouridine). The calibration curves are shown in Appendix*. […] Compound ID PBS solubility, pH 7.4, μM SE […] Ondansetron 128 126 127** 1.1 EN300-7362818 6 6 6 0.2 (Sonidegib) BCHep-Sonidegib (50) 5 3 4 0.9 Table S3. 2nd batch PBS solubility, pH 7.4, μM Compound ID SE […] Ondansetron 124 124 124** 0.1 EN300-45381956 (51) 34 34 34 0.2 *Goodness of fit (R2) in all titration curves as well as the variations between repeat measurements indicates a high quality of the experimental data in the current batch of test articles. **Ondansetron solubility data are consistent with those previously obtained. […]

[2] = in vitro; details: human; for efflux ratio at 90 min, 10 µM: Caco-2, pH 7.4; for Papp A→B at 90 min, 10 µM: Caco-2, pH 7.4, Papp (AB); for Papp B→A at 90 min, 10 µM: Caco-2, pH 7.4, Papp (BA)
[3] = system: Hedgehog signaling pathway; details: Mus musculus
[4] = physchem
[5] = Metabolic stability in human liver microsomes; assay type: in vitro ADME; details: both sexes, human; for remaining at 40 min, 2 µM / remaining at 7 min, 2 µM / remaining at […], 2 µM / remaining at 25 min, 2 µM: pH 7.4, Table S7, 2nd batch; for microsomal CLint at 2 μM: read-out: CLint: experimental metabolic stability in human liver microsomes; for remaining at […], 2 µM: 15 min
Method: 9. Metabolic Stability in Human Liver Microsomes
The objective of this study was to determine the metabolic stability of 3 test articles (EN300- […]
in human liver microsomes at five-time points over 40 minutes using HPLC-MS. Metabolic stability is defined as the percentage of parent compound lost over time in the presence of a metabolically active test system.
Potassium phosphate monobasic (Bio-Basic, Canada; Lot #N9016010)
Potassium phosphate dibasic (Bio-Basic, Canada; Lot #MA7100050) […]
Glucose-6-phosphate dehydrogenase from baker's yeast, type XV (Sigma-Aldrich, USA; Cat […]
D-Glucose-6-phosphate sodium salt (Sigma-Aldrich, USA; Cat #G7879-1G)
NADPH tetrasodium salt (BLD Pharmatech Ltd., Cat #BD116582)
Verapamil hydrochloride (Sigma Aldrich, USA; Cat #V4629)
Niclosamide (Sigma-Aldrich, USA; Cat #N3510)
DMSO stock solutions of the tested compounds 20 mM
Gradient HPLC system (Shimadzu)
Triple quadrupole mass-detector API 3000 with TurboIonSpray Ion Source (AB Sciex, Canada) […]
Multichannel pipettors 1-30 µL, 2-125 µL, 30-850 µL (Thermo Scientific) […]
All measurements were performed using the Shimadzu HPLC system including vacuum degasser, gradient pumps, reverse phase HPLC column, column oven, and autosampler. Mass spectrometric analysis was performed using an API 3000 mass spectrometer from Applied Biosystems/MDS Sciex (AB Sciex) with Turbo V ion source and TurboIonspray interface. The […]
and system control were performed using Analyst 1.6.3 software from AB Sciex.
Microsomal incubations were carried out in 96-well plates in 5 aliquots of 30 μL each (one for each time point). Liver microsomal incubation medium comprised of phosphate buffer (100 mM, pH 7.4), MgCl2 (3.3 mM), NADPН (3 mM), glucose-6-phosphate (5.3 mM), glucose-6-phosphate dehydrogenase (0.67 units/mL) with 0.42 mg of liver microsomal protein per mL. In the control reactions, the NADPH-cofactor system was substituted with phosphate buffer. Test compounds […]
100 rpm. Five-time points over 40 minutes were analyzed. The reactions were stopped by adding 5 volumes of acetonitrile with internal standard to incubation aliquots, followed by protein sedimentation by centrifuging at 5500 rpm for 5 min. Each reaction was performed in duplicates.
Supernatants were analyzed using the HPLC system coupled with a tandem mass spectrometer.
The elimination constant (kel), half-life (t1/2), and intrinsic clearance (Clint) were determined in a plot of […] versus time, using linear regression analysis:1
1 In order to indicate the quality of the linear regression analysis, the R2 (determination coefficient) values are provided.
In some cases, the last time point is excluded from the calculations to ensure acceptable logarithmic linearity of decay.

[6] = Table S5, 2nd batch
[7] = NIH3T3, read-out: pIC50, Hedgehog signaling pathway, experiment with EN300-45381956 (51) (converted), calculated from IC50
[8] = pH 7.4, LogD, pH 7.4 (overall of 3 incubations)
[9] = pH 7.4, logD (7.4): experimental distribution coefficient in n-octanol/phosphate-buffered saline, pH 7.4
[10] = human liver microsomes, pH 7.4, human liver microsomes, read-out: t1/2: experimental half-time of a metabolic decomposition
[11] = liver microsomes, 2 µM, read-out: % Remaining, Mean of 2
[12] = Mean, 10 µM, 90 min, no verapamil
[13] = replicate 1, 10 µM, 90 min, no verapamil
[14] = replicate 2, 10 µM, 90 min, no verapamil

CC1CN(c2ccc(NC(=O)C34COCC(c5ccc(OC(F)(F)F)cc5)(C3)C4)cn2)CC(C)O1 (stereo not drawn) [Compound 51]
solubility kinetic at 2 h [1]: 34 µM (≈ 16.7 µg/mL)
solubility at 2 h ([1]; pH 7.4, Incubation 1): 34 µM (≈ 16.7 µg/mL)
solubility at 2 h ([1]; pH 7.4, Incubation 2): 34 µM (≈ 16.7 µg/mL)
solubility at 2 h ([1]; pH 7.4, Mean): 34 µM (≈ 16.7 µg/mL)
efflux ratio at 90 min, 10 µM [2]: 1.5
Papp A→B at 90 min, 10 µM ([2]; Mean): 5.4 ×10⁻⁶ cm/s
Papp A→B at 90 min, 10 µM ([2]; replicate 1): 6.3 ×10⁻⁶ cm/s
Papp A→B at 90 min, 10 µM ([2]; replicate 2): 4.5 ×10⁻⁶ cm/s
Papp B→A at 90 min, 10 µM ([2]; Mean): 8 ×10⁻⁶ cm/s
Papp B→A at 90 min, 10 µM ([2]; replicate 1): 7.3 ×10⁻⁶ cm/s
Papp B→A at 90 min, 10 µM ([2]; replicate 2): 8.7 ×10⁻⁶ cm/s
recovery at 90 min, 10 µM ([2]; Caco-2, pH 7.4, Recovery A-B in presence of Verapamil, Mean): 51%
recovery at 90 min, 10 µM ([2]; Caco-2, pH 7.4, Recovery A-B in presence of Verapamil, replicate 1): 53%
recovery at 90 min, 10 µM ([2]; Caco-2, pH 7.4, Recovery A-B in presence of Verapamil, replicate 2): 49%
recovery at 90 min, 10 µM ([2]; Caco-2, pH 7.4, Recovery A-B, Mean): 43%
recovery at 90 min, 10 µM ([2]; Caco-2, pH 7.4, Recovery A-B, replicate 1): 44%
recovery at 90 min, 10 µM ([2]; Caco-2, pH 7.4, Recovery A-B, replicate 2): 43%
recovery at 90 min, 10 µM ([2]; Caco-2, pH 7.4, Recovery B-A in presence of Verapamil, Mean): 77%
recovery at 90 min, 10 µM ([2]; Caco-2, pH 7.4, Recovery B-A in presence of Verapamil, replicate 1): 69%
recovery at 90 min, 10 µM ([2]; Caco-2, pH 7.4, Recovery B-A in presence of Verapamil, replicate 2): 86%
recovery at 90 min, 10 µM ([2]; Caco-2, pH 7.4, Recovery B-A, Mean): 70%
recovery at 90 min, 10 µM ([2]; Caco-2, pH 7.4, Recovery B-A, replicate 1): 71%
recovery at 90 min, 10 µM ([2]; Caco-2, pH 7.4, Recovery B-A, replicate 2): 69%
IC50 ([3]; NIH3T3, read-out: IC50 (HH signal): inhibition of the Hedgehog signaling pathway, Gli reporter NIH3T3 cell line): 96 nM
IC50 [3, 7]: 100 nM
logD at 1 h ([4]; pH 7.4, LogD, pH 7.4): ≥ 4.5
logD at 1 h [4, 8]: ≥ 4.5
logD at 1 h [4, 9]: ≥ 4
remaining at 40 min, 2 µM ([5]; human liver microsomes, no NADPH, read-out: % Remaining without cofactor, Mean of 2): 104%
half-life at 2 μM [5, 10]: 1.02 h
k el at 2 µM ([5]; human liver microsomes, pH 7.4, Table S7, 2nd batch): 0.000183 s⁻¹
half-life at 2 μM ([5]; human liver microsomes, pH 7.4, Table S7, 2nd batch, read-out: t1/2): 1.01 h
microsomal CLint at 2 μM ([5]; human liver microsomes, pH 7.4): 28 µL/min/mg
remaining at 7 min, 2 µM ([5]; liver microsomes, 2 µM): 96%
remaining at […], 2 µM ([5]; liver microsomes, 2 µM): 89%
remaining at 25 min, 2 µM ([5]; liver microsomes, 2 µM): 77%
remaining at 40 min, 2 µM [5, 11]: 64%
D ([6]; incubation 1): 7.16E+04
D ([6]; incubation 2): 6.24E+04
D ([6]; incubation 3): 6.33E+04

Cc1c(C(=O)Nc2ccc(N3C[C@@H](C)O[C@@H](C)C3)nc2)cccc1-c1ccc(OC(F)(F)F)cc1 [Sonidegib]
solubility kinetic at 2 h [1]: 6 µM (≈ 2.91 µg/mL)
solubility at 2 h ([1]; pH 7.4, Incubation 1): 6 µM (≈ 2.91 µg/mL)
solubility at 2 h ([1]; pH 7.4, Incubation 2): 6 µM (≈ 2.91 µg/mL)
solubility at 2 h ([1]; pH 7.4, Mean): 6 µM (≈ 2.91 µg/mL)
efflux ratio at 90 min, 10 µM [2]: 0.3
Papp A→B at 90 min, 10 µM [2, 12]: 2.8 ×10⁻⁶ cm/s
Papp A→B at 90 min, 10 µM [2, 13]: 2.9 ×10⁻⁶ cm/s
Papp A→B at 90 min, 10 µM [2, 14]: 2.7 ×10⁻⁶ cm/s
Papp B→A at 90 min, 10 µM [2, 12]: 0.9 ×10⁻⁶ cm/s
Papp B→A at 90 min, 10 µM [2, 13]: 1 ×10⁻⁶ cm/s
Papp B→A at 90 min, 10 µM [2, 14]: 0.9 ×10⁻⁶ cm/s
recovery at 90 min, 10 µM ([2]; Caco-2, pH 7.4, Recovery A-B in presence of Verapamil, Mean, with verapamil): 65%
recovery at 90 min, 10 µM ([2]; Caco-2, pH 7.4, Recovery A-B in presence of Verapamil, replicate 1, with verapamil): 67%
recovery at 90 min, 10 µM ([2]; Caco-2, pH 7.4, Recovery A-B in presence of Verapamil, replicate 2, with verapamil): 63%
recovery at 90 min, 10 µM ([2]; Caco-2, pH 7.4, Recovery A-B, Mean, no verapamil): 36%
recovery at 90 min, 10 µM ([2]; Caco-2, pH 7.4, Recovery A-B, replicate 1, no verapamil): 35%
recovery at 90 min, 10 µM ([2]; Caco-2, pH 7.4, Recovery A-B, replicate 2, no verapamil): 37%
recovery at 90 min, 10 µM ([2]; Caco-2, pH 7.4, Recovery B-A in presence of Verapamil, Mean, with verapamil): 61%
recovery at 90 min, 10 µM ([2]; Caco-2, pH 7.4, Recovery B-A in presence of Verapamil, replicate 1, with verapamil): 63%
recovery at 90 min, 10 µM ([2]; Caco-2, pH 7.4, Recovery B-A in presence of Verapamil, replicate 2, with verapamil): 60%
recovery at 90 min, 10 µM ([2]; Caco-2, pH 7.4, Recovery B-A, Mean, no verapamil): 45%
recovery at 90 min, 10 µM ([2]; Caco-2, pH 7.4, Recovery B-A, replicate 1, no verapamil): 46%
recovery at 90 min, 10 µM ([2]; Caco-2, pH 7.4, Recovery B-A, replicate 2, no verapamil): 43%
IC50 ([3]; NIH3T3, read-out: IC50, Hedgehog signaling pathway, mean ± SD from 2 independent experiments, experiment with BCH-Sonidegib (50)): 6.4 ± 0.5 nM
IC50 ([3]; NIH3T3, read-out: IC50, Hedgehog signaling pathway, reference compound in the experiment with EN300-45381956 (51)): 1.46 nM
IC50 [3, 7]: 1.58 nM
logD at 1 h ([4]; pH 7.4, LogD, pH 7.4): ≥ 4.5
logD at 1 h [4, 8]: ≥ 4.5
logD at 1 h [4, 9]: ≥ 4
half-life at 2 μM [5, 10]: 1.73 h
microsomal CLint at 2 μM ([5]; human liver microsomes, pH 7.4): 16 µL/min/mg
remaining at 7 min, 2 µM ([5]; liver microsomes, 2 µM): 100%
remaining at […], 2 µM ([5]; liver microsomes, 2 µM): 94%
remaining at 25 min, 2 µM ([5]; liver microsomes, 2 µM): 89%
remaining at 40 min, 2 µM [5, 11]: 77%
remaining at 40 min, 2 µM ([5]; liver microsomes, no NADPH, read-out: % Remaining without cofactor, Mean of 2): 103%
k el at 2 µM ([5]; liver microsomes, pH 7.4, Table S7, 2nd batch): 0.000117 s⁻¹
half-life at 2 μM ([5]; liver microsomes, pH 7.4, Table S7, 2nd batch, read-out: t1/2): 1.73 h
D ([6]; incubation 1): 5.61E+04
D ([6]; incubation 2): 5.60E+04
D ([6]; incubation 3): 6.79E+04

From paper PMC12171319, “3‐Oxabicyclo[3.1.1]heptane as an Isostere of meta‐Benzene” (Angewandte Chemie (International Ed. in English), 2025)
